Measured values published in ChEMBL document CHEMBL1201862, “PubChem BioAssay data set” (2004).
Activity calls are given as the source filed them.

How the values were obtained:
fMet-Leu-Phe receptor = fMet-Leu-Phe receptor (Homo sapiens, UniProt P21462); assay: formyl peptide receptor binders – dose response (AID 519); format: functional
[1] = A Cell-Based Confirmatory Screen for Compounds that Inhibit VEEV, TC-83 (3).; format: functional
BJ = assay: growth inhibition of engineered Ras-driven BJ cells – cell-based, alamar blue fluorescence, cherrypicked samples, dose response (AID 2631); format: functional; details: Homo sapiens;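 further: confirmatory dose-response assay in RAS-dependent BJ fibroblasts engineered with TERT, LT and ST, with cytotoxicity read by fluorescence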
[2] = viability loss in human hepatoma cells – cell-based, CellTiter-Glo luminescence, cherry-pick, set 2, cytotoxicity control, dose response (AID 743395); format: functional
Paired box protein Pax-8 = Paired box protein Pax-8 (Homo sapiens, UniProt Q06710); assay: PAX8 transcriptional activity inhibition in RMG-I – RMG-I cells, luciferase, cherry-pick, dose response (AID 687027); format: functional, cell-based;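 further: luciferase reporter driven by Pax8 target thyroperoxidase promoter measured by SteadyGlo luminescence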
[3] = biological target: Endoplasmic reticulum aminopeptidase 1 (Homo sapiens, UniProt Q9NZ08); assay: inhibition of human ERAP1 enzyme activity – biochemical, cherry-pick, set 2, plate reader, dose response (AID 743314)
[4] = ATP-based viability loss in HeLa cells – cell-based, CellTiter-Glo luminescence, dry powder, set 2, cytotoxicity control, dose response (AID 720593); format: functional
[5] = dual-tagged ARNT PAS-B bead signal quenchers – biochemical, dry powder, artefact control for ARNT/TACC3 disruptor project, dose response (AID 720564)
[6] = Trypanosoma cruzi growth suppression in host cells – NIH3T3 host cells, beta-gal luminescence, confirmation (AID 2044); format: functional, cell-based;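 further: intracellular parasites grown in NIH/3T3 mouse fibroblasts as host cells; luminescent beta-galactosidase reporter signal from transgenic T. cruzi replicating inside host cells; inhibitors lower the luminescence signal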
[7] = Counterscreen for inhibitors of Trypanosoma brucei methionyl tRNA synthetase (MetRS): Luminescence-based cell-based high throughput dose response assay to identify compounds that are cytotoxic to Jurkat human T lymphocyte cells.; format: functional
[8] = biological target: Disintegrin and metalloproteinase domain-containing protein 17 (Homo sapiens, UniProt P78536); assay: inhibition of ADAM17 substrate cleavage – biochemical, quenched FRET substrate, counter-screen for ADAM10 exosite inhibitor project, dose response (AID 743253)
[9] = biological target: T1, Methionyl-tRNA synthetase, putative (Trypanosoma brucei brucei, UniProt Q38C91); format: functional, Trypanosoma brucei brucei strain 927/4 GUTat10.1
T1 sequence (Q38C91 whole entry): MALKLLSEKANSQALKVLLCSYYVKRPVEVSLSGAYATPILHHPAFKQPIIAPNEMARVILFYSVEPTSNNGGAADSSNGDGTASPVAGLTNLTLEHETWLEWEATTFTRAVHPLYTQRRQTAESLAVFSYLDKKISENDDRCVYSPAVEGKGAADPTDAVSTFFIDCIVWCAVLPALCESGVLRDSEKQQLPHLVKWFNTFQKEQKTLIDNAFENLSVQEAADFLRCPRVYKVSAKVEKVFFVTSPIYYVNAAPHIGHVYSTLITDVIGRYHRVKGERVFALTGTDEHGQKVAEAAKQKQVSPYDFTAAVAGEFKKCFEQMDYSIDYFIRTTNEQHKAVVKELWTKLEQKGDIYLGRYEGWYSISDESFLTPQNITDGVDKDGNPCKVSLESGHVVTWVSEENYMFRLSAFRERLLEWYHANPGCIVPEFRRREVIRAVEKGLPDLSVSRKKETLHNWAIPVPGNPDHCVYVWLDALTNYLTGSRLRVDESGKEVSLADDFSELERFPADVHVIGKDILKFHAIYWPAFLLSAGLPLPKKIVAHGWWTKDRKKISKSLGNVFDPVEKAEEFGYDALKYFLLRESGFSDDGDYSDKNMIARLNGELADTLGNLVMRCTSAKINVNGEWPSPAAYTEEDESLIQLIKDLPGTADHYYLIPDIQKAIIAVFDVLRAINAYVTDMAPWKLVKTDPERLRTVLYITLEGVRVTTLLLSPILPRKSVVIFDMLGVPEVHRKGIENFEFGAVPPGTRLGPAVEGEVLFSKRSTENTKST

[10] = biological target: T1, Methionyl-tRNA synthetase, putative; format: functional, Trypanosoma brucei brucei strain 927/4 GUTat10.1; remark: listed apart in the source
[11] = potency of ADAM10 substrate cleavage blockers – biochemical, QFRET, dose response (AID 743254);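 further: ADAM10 enzyme with the DM2 quenched FRET peptide as substrate; EDANS fluorescence gain as the protease cuts the substrate; inhibitor potency against ADAM10 proteolytic activity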
[12] = NIH3T3 cell viability loss – ATP luminescence, mouse fibroblasts, counter-screen, dose response (AID 2010); format: functional, cell-based;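 further: cells exposed to compound for about 90 hours before reading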
[13] = kidney cell line viability loss – HEK293T, luminescence plate reader, powder samples, set 4, cytotoxicity control, dose response (AID 651863); format: functional, cell-based; details: HEK293
Fatty acid synthase = Fatty acid synthase (Homo sapiens, UniProt P49327); assay: inhibition of human FAS-TE enzyme activity – biochemical, endpoint fluorescence intensity, powder samples, SAR follow-up (AID 652164); format: functional
[14] = CMV-driven luciferase expression suppression in HEK293 – cell-based, luminescence, dry powder, counter-screen for Pax8 inhibitor project, dose response (AID 743020); format: functional
[15] = HGIII-sPLA2 enzyme inhibition potency – biochemical, QFRET, IC50, dose response (AID 743457);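 further: green fluorescence rise as the enzyme cleaves BODIPY PC-A2 in liposomes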
[16] = biological target: T2, Trace amine-associated receptor 1 (Homo sapiens, UniProt Q96RJ0); assay: Counterscreen for antagonists of the human trace amine associated receptor 1 (hTAAR1): Fluorescence-based cell-based high throughput dose response assay to identify TAAR1 Agonists.; format: functional
T2 sequence (Q96RJ0 whole entry): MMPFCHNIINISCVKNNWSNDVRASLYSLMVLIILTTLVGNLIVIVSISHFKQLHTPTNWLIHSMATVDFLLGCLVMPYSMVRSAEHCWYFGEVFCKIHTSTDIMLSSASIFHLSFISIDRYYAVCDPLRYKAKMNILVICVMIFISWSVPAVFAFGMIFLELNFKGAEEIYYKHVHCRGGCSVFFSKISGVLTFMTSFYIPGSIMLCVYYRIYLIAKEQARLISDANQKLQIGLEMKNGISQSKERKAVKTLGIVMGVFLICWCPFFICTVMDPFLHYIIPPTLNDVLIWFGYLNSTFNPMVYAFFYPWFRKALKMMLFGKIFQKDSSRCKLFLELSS

[17] = Counterscreen for antagonists of the human trace amine associated receptor 1 (hTAAR1): Fluorescence-based cell-based high throughput dose response assay to identify nonselective Ga16 antagonists.; format: functional
[18] = Counterscreen for […] of the human trace amine associated receptor 1 (TAAR1): Fluorescence-based cell-based high throughput dose response assay to identify nonselective Ga16 agonists.; format: functional
[19] = biological target: T2, Trace amine-associated receptor 1; assay: Fluorescence-based cell-based high throughput dose response assay to identify antagonists of the human trace amine associated receptor 1 (TAAR1).; format: functional
[20] = general mammalian cell viability loss – inhibitor set, cherry-pick, set 2, cytotoxicity control for miR-122 modulator project, dose response (AID 720697); format: functional, cell-based
[21] = viability loss in HEK293 kidney cells – cell-based, cherry-picks, set 5, cytotoxicity control, dose response (AID 1053117); format: functional
[22] = fluconazole-exposed Candida albicans growth modulators – fluorescence, retest, confirmation (AID 2467); format: functional, cell-based
Large T antigen = Large T antigen (Simian virus 40, UniProt P03070); format: functional, Betapolyomavirus macacae;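 further: Confirmatory-stage PubChem screen for compounds that inhibit SV40 T antigen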
Caspase-6 = biological target: T3, Caspase-6 (Homo sapiens, UniProt P55212); assay: inhibition of CASP6 peptide cleavage – biochemical, VEID-R110 fluorescence, cherry-pick, dose response (AID 720632)
T3 sequence (P55212 whole entry): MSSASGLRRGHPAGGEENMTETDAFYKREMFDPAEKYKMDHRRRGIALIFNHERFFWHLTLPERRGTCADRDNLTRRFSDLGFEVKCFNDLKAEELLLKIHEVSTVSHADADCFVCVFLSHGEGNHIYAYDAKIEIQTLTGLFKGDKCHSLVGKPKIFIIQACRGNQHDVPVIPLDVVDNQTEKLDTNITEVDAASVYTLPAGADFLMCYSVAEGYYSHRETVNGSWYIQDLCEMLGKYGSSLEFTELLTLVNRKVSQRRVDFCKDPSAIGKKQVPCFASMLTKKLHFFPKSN

[23] = NIH-3T3 fibroblast cytotoxicity, dose response, cytotoxicity control, cell-based, fluorescence, Alamar Blue, secondary assay (AID 2327); format: functional;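 further: NIH-3T3 mouse fibroblasts cultured with fluconazole at 8 µg/mL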
Albumin = Albumin (Bos taurus, UniProt P02769); assay: Counterscreen for inhibitors of T-cell receptor (TCR)-CD3 interaction: Fluorescence-based biochemical high throughput dose response assay to identify inhibitors of T-cell receptor (TCR)-CD3 interaction using a TAMRA-labeled BSA probe.; format: functional
Major prion protein = Major prion protein (Homo sapiens, UniProt P04156); format: functional, cell-based
[24] = general mammalian cell viability loss – activator set, cherry-pick, cytotoxicity control for miR-122 modulator project, dose response (AID 720690); format: functional, cell-based;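 further: HEK293T human cells scored for general mammalian cytotoxicity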

In the case of CCC(Sc1nc2c(c(=O)[nH]1)CCC2)C(=O)Nc1cccc(OC)c1 (centres undefined), the Ki (fMet-Leu-Phe receptor) is reported as 35.5 µM (inactive).

For CC(C)N1CCN(Cc2nc3ccc([N+](=O)[O-])cc3c(=O)n2-c2ccccc2F)CC1, the IC50 [1] was 3.13 µM (active).

For COc1ccc(C(=O)c2cc([N+](=O)[O-])ccc2N2CCOCC2)cc1, the EC50 (BJ) was < 0.104 µM (active), the AbsAC35_uM [2] was 60.09 µM and the AC50 (Paired box protein Pax-8) was 3.21 µM (active).

With COC(=O)[C@H]1[C@H](CO)[C@H]2Cn3c(ccc(-c4ccncc4)c3=O)[C@H]2N1Cc1ccccc1F the AC50 [3] was 10.2 µM (active).

For O=C(Nc1nc(-c2ccncc2)cs1)c1cccc(S(=O)(=O)N2CCOCC2)c1, the AC50 [4] was > 52 µM (inactive) and the AC50 [5] was 110 µM (active).

For COc1ccccc1NS(=O)(=O)c1cccc(NC(=O)Nc2cccc(Cl)c2)c1, the EC50 [6] was 2.16 µM (active), the IC50 [7] was 41.1 µM (inactive) and the IC50 [8] was > 69.5 µM (inactive). For the same molecule, the IC50 [9] was 12 µM (inactive), the IC50 [10] was 15.7 µM (inactive) and the IC50 [11] was 12 µM (inactive). For the same molecule, the EC50 [12] was > 60 µM (not active).

With COC(=O)C(C(=O)OC)c1cc(NS(=O)(=O)c2c(C)cc(C)cc2C)c2ccccc2c1O the AC50 [13] was 27 µM (active).

With CC(=O)Nc1nc(-c2ccc(S(=O)(=O)N3CCSCC3)cc2)cs1 the IC50 (Fatty acid synthase) was > 80 µM (inactive).

With C[C@@H]1CCCCO[C@@H](CN(C)C(=O)Nc2ccc(F)cc2)[C@H](C)CN([C@@H](C)CO)C(=O)c2cc(NC(=O)Nc3ccc(C(F)(F)F)cc3)ccc2O1 the AC50 (Paired box protein Pax-8) was 4.11 µM (active) and the AC50 [14] was 67.7 µM (active).

With CCCCN=C(S)NNC(=O)c1csc(C)c1C the IC50 [15] was > 122 µM (inactive).

For Cc1cc(/C=N\NC(=O)CC(=O)NC2CCCCC2)c(C)n1-c1ccc(Cl)c(Cl)c1, the EC50 [16] was 7.54 µM (active), the IC50 [17] was 15.3 µM (inactive) and the EC50 [18] was > 29.9 µM (inactive). The IC50 [19] was 0.915 µM (active).

In the case of CCC(=O)NC[C@@H]1[C@@H](c2ccc(C3=CCCC3)cc2)[C@@H](CO)N1C(C)=O, the AC50 [20] is reported as 9.42 µM (active).

In the case of Cc1cccc(NC(=O)c2ccc(S(=O)(=O)N3CCCCC3)cc2)n1, the AC50 [21] is reported as > 52 µM (inactive).

For C/C(=N/NC(=O)c1cc(O)c(O)c(O)c1)c1ccc([N+](=O)[O-])cc1, the EC50 [22] was > 38 µM (not active), the IC50 (Large T antigen) was 8.68 µM (active) and the AC50 (Caspase-6) was 27.5 µM (active). For the same molecule, the EC50 [23] was > 160 µM (inactive) and the IC50 (Albumin) was > 94.1 µM (inactive).

In the case of Cc1cc(NC(=O)CCC(=O)N(c2ccccc2)C(C(=O)NC2CCCC2)c2cccs2)no1 (centres undefined), the IC50 (Major prion protein) is reported as 16.2 µM (inactive) and the IC50 (cells) is reported as > 138 µM (inactive).

With CN[C@H]1C[C@H]2c3[nH]c4ccc(-c5ccc(OC)cc5)cc4c3CCN2C(=O)[C@H]1[C@H](C)O the AC50 [24] was 15.8 µM (active).
